Measurements reported in US9199928B2, “Fluorescent dye for pH sensor” (SARTORIUS STEDIM BIOTECH GMBH, priority 2011, dated 2015).

melting point: 210 to 212 °C (dec.)
Compound: NC(CCCCNS(=O)(=O)c1cc(S(=O)(=O)NCCCCC(N)C(=O)O)c2ccc3c(O)cc(O)c4ccc1c2c43)C(=O)O (stereo not shown)
